# Where two headings read alike, the source gives them in different places.
# Experiments:
# MCF7 = tested on: MCF7; parameters: key to the marks not given beside the values
# NL20 = tested on: NL20; parameters: key to the marks not given beside the values
# MDCK = tested on: MDCK; parameters: key to the marks not given beside the values
# rat brain synaptosomes = assay: Receptor binding assays
# [1] = SJCRH30 cells, 400 nM, 1 hour at 37° C., 20× objective, Example 15C
compound,measurement,setting,value
"Cc1cc(C)n2c1C=C1C=CC(CCC(=O)NN)=[N+]1[B-]2(F)F [BODIPY ®, 4,4-difluoro-5,7-dimethyl-4-bora-3a,4a-diaza-s-indacene-3-propionic acid, hydrazide]",level of fluorescence,T47D,+
same,level of fluorescence,DMS-114,−
same,level of fluorescence,184B5,+
same,level of fluorescence,SJCRH30,+
same,level of fluorescence,A549,−
same,level of fluorescence,BT549,+
same,level of fluorescence,CHO-K1,−
same,level of fluorescence,MCF7,++
same,level of fluorescence,NL20,++
same,level of fluorescence,MDCK,++
same,level of fluorescence,HEK293,−
COc1cccc2c1C(=O)c1c(O)c3c(c(O)c1C2=O)C[C@@](O)(C(C)=O)C[C@@H]3O[C@H]1C[C@H](N)[C@H](O)[C@H](C)O1 [Daunorubicin],level of fluorescence,SJCRH30; [1],−
"CN(C)c1ccc2c(-c3cc(C(=O)[O-])ccc3C(=O)O)c3ccc(=[N+](C)C)cc-3oc2c1 [Example 6-TAMRA, 6-carboxytetramethylrhodamine]",level of fluorescence,SJCRH30; [1],−
C=C/C=C\CC[C@H]1O[C@H]2CC[C@@]3(C)O[C@H]4[C@@H](O)C[C@@]5(C)O[C@@H](CC/C=C(C)/C(C)=C/C=O)[C@@H](C)C[C@H]5O[C@@H]4C[C@@H]3O[C@@H]2CC[C@@]1(C)O [brevenal],affinity (binding to rat brain synaptosomes),"rat brain synaptosomes; parent compound, first value printed for brevenal",400 to 800 nM
C=C(C=O)C[C@@H]1C[C@H](O)[C@]2(C)O[C@@H]3C[C@@H]4O[C@@H]5C[C@]6(C)O[C@]7(C)CC[C@@H]8O[C@@H]9C[C@]%10(C)O[C@@H]%11C(C)=CC(=O)O[C@H]%11C[C@H]%10O[C@H]9C[C@@H](C)[C@H]8O[C@H]7C[C@H]6O[C@H]5C/C=C\[C@H]4O[C@H]3C[C@H]2O1 [brevetoxin],affinity (binding to rat brain synaptosomes),rat brain synaptosomes,2-10 nm

# Source: patent US20160128321A1, “Ladder-Frame Polyether Conjugates” (priority 2010, published 2016)
